Legend:
Assay type in all cases: in vivo
[1] = system: barnyardgrass (Echinochloa crus-galli); experiment: Test B flooded paddy test; conditions: 250 g ai/ha, Flood; visual rating on scale of 0 to 100 where 0 is no effect and 100 is complete control; 13 to 15 d after treatment
How it was run: (§1)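 Plants grown to the 2-leaf stage. At treatment, pots were flooded to 3 cm above the soil, compound was applied directly to the paddy water, and that depth was held throughout. After 13 to 15 d in the greenhouse, response was rated visually against controls on a 0 (no effect) to 100 (complete control) scale.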

rice (Oryza sativa) = experiment: Test B flooded paddy test; conditions: 250 g ai/ha, Flood; visual rating on scale of 0 to 100 where 0 is no effect and 100 is complete control; 13 to 15 d after treatment
How it was run: as §1

[2] = system: ducksalad (Heteranthera limosa); experiment: Test B flooded paddy test; conditions: 250 g ai/ha, Flood; visual rating on scale of 0 to 100 where 0 is no effect and 100 is complete control; 13 to 15 d after treatment
How it was run: as §1

[3] = system: sedge, umbrella (small-flower umbrella sedge, Cyperus difformis); experiment: Test B flooded paddy test; conditions: 250 g ai/ha, Flood; visual rating on scale of 0 to 100 where 0 is no effect and 100 is complete control; 13 to 15 d after treatment
How it was run: as §1

[4] = system: wheat (Triticum aestivum); experiment: Test A greenhouse herbicide test, pre- and postemergence; conditions: Postemergence
How it was run: (§2)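 Seeds in loam–sand blend received a preemergence directed soil spray; plants at 2–10 cm, one- to two-leaf stage, received postemergence sprays. Compounds in a non-phytotoxic solvent with surfactant. After about 10 d in a greenhouse, injury rated visually versus untreated controls on a 0–100 scale (100 = complete control).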

[5] = system: foxtail, giant (giant foxtail, Setaria faberii); experiment: as above
How it was run: as §2

[6] = system: ryegrass, Italian (Italian ryegrass, Lolium multiflorum); experiment: as above
How it was run: as §2

[7] = system: ragweed (common ragweed, Ambrosia elatior); experiment: as above
How it was run: as §2

[8] = system: pigweed (Amaranthus retroflexus); experiment: as above
How it was run: as §2

corn (Zea mays) = experiment: as above; conditions: Postemergence
How it was run: as §2

[9] = 125 g ai/ha, 0 to 100 scale, 0 no effect, 100 complete control
[10] = 500 g ai/ha, visual rating after approx. 10 d, 0 to 100 scale (0 no effect, 100 complete control)
[11] = Postemergence, 125 g ai/ha, 0 to 100 scale, 0 no effect, 100 complete control
[12] = Postemergence, 500 g ai/ha, visual rating after approx. 10 d, 0 to 100 scale (0 no effect, 100 complete control)
[13] = Preemergence, 125 g ai/ha, visual injury rating, 0 to 100 scale (0 no effect, 100 complete control), approx. 10 d
[14] = Preemergence, 500 g ai/ha, 0 to 100 scale where 0 is no effect and 100 is complete control
[15] = 125 g ai/ha, 0 to 100 scale where 0 is no effect and 100 is complete control
[16] = Postemergence, 125 g ai/ha, 0 to 100 scale where 0 is no effect and 100 is complete control
[17] = Preemergence, 125 g ai/ha, 0 to 100 scale where 0 is no effect and 100 is complete control
[18] = 500 g ai/ha, 0 to 100 scale, 0 is no effect, 100 is complete control
[19] = Postemergence, 500 g ai/ha, 0 to 100 scale, 0 is no effect, 100 is complete control
[20] = Preemergence, 500 g ai/ha, 0 to 100 scale, 0 no effect, 100 complete control

| SMILES | Plant response rating, Barnyardgrass [1] | Plant response rating, Rice (rice (Oryza sativa)) | Plant response rating, Ducksalad [2] | Plant response rating, Sedge, Umbrella [3] | Plant response rating, Wheat [4, 10] | Plant response rating, Foxtail, Giant [5, 12] | Plant response rating, Foxtail, Giant [5, 14] | Plant response rating, Ryegrass, Italian [6, 12] | Plant response rating, Ryegrass, Italian [6, 14] | Plant response rating, Ragweed [7, 12] | Plant response rating, Ragweed [7, 14] | Plant response rating, Pigweed [8, 12] | Plant response rating, Pigweed [8, 14] | Plant response rating, Corn (corn (Zea mays); [10]) | Plant response rating, Wheat [4, 15] | Plant response rating, Foxtail, Giant [5, 16] | Foxtail, Giant plant response rating [5, 17] | Plant response rating, Ryegrass, Italian [6, 16] | Plant response rating, Ragweed [7, 16] | Plant response rating, Pigweed [8, 16] | also measured |
| --- | --- | --- | --- | --- | --- | --- | --- | --- | --- | --- | --- | --- | --- | --- | --- | --- | --- | --- | --- | --- | --- |
| CC(=O)Oc1c(Cl)nn(C)c(=O)c1-c1c(C)sc2ccc(C(F)(F)F)cc12 [Compound 152] | 0 | 0 | 0 | 0 | 50 | 50 | 90 | 90 | 100 | 90 | 100 | 60 | 90 | 0 |  |  |  |  |  |  | Plant response rating, Wheat [4, 9]: 30; Plant response rating, Foxtail, Giant [5, 11]: 30; Plant response rating, Foxtail, Giant [5, 13]: 40; Plant response rating, Ryegrass, Italian [6, 11]: 30; Plant response rating, Ryegrass, Italian [6, 13]: 90; Plant response rating, Ragweed [7, 11]: 70; Plant response rating, Ragweed [7, 13]: 80; Plant response rating, Pigweed [8, 11]: 50; Plant response rating, Pigweed [8, 13]: 90; Plant response rating, Corn (corn (Zea mays); [9]): 0 |
| CCC(=O)Oc1c(C)nn(C)c(=O)c1-c1ccc(F)c2ccccc12 [Compound 113] | 0 | 0 | 0 | 0 | 70 | 90 | 100 | 100 | 100 | 100 | 90 | 100 | 100 | 70 | 30 | 40 | 70 | 100 | 90 | 90 | Ryegrass, Italian plant response rating [6, 17]: 100; Ragweed plant response rating [7, 17]: 70; Pigweed plant response rating [8, 17]: 100; Plant response rating, Corn (corn (Zea mays); [15]): 20 |
| CC(=O)Oc1c(C)nn(C)c(=O)c1-c1c(C)sc2ccc(C(F)(F)F)cc12 [Compound 132] | 0 | 0 | 0 | 0 | 20 | 80 | 90 | 100 | 90 | 100 | 90 | 90 | 100 | 10 | 0 | 60 | 70 | 100 | 100 | 60 | Ryegrass, Italian plant response rating [6, 17]: 90; Ragweed plant response rating [7, 17]: 80; Pigweed plant response rating [8, 17]: 90; Plant response rating, Corn (corn (Zea mays); [15]): 0 |
| Cc1ccc2ccccc2c1-c1c(O)c(C(F)(F)F)nn(C)c1=O [Compound 102] | 0 | 0 | 0 | 50 | 20 | 90 | 90 | 80 | 60 | 100 | 90 | 90 | 100 | 20 | 20 | 70 | 70 | 20 | 100 | 90 | Ryegrass, Italian plant response rating [6, 17]: 60; Ragweed plant response rating [7, 17]: 90; Pigweed plant response rating [8, 17]: 80; Plant response rating, Corn (corn (Zea mays); [15]): 20 |
| CCc1sc2c(C)cc(C)cc2c1-c1c(O)c(C)nn(C)c1=O [Compound 57] | 0 | 0 | 0 | 0 |  |  |  |  |  |  |  |  |  |  | 0 | 80 | 100 | 70 | 100 | 100 | Wheat plant response rating [4, 18]: 10; Foxtail, Giant plant response rating [5, 19]: 90; Plant response rating, Foxtail, Giant [5, 20]: 100; Ryegrass, Italian plant response rating [6, 19]: 90; Ryegrass, Italian plant response rating [6, 17]: 90; Plant response rating, Ryegrass, Italian [6, 20]: 100; Ragweed plant response rating [7, 19]: 100; Ragweed plant response rating [7, 17]: 90; Plant response rating, Ragweed [7, 20]: 100; Pigweed plant response rating [8, 19]: 100; Pigweed plant response rating [8, 17]: 100; Plant response rating, Pigweed [8, 20]: 100; Plant response rating, Corn (corn (Zea mays); [15]): 20; Corn plant response rating (corn (Zea mays); [18]): 30 |
| Cc1nn(C)c(=O)c(-c2ccc(Cl)c3ccccc23)c1O [Compound 139] | 0 | 0 | 0 | 0 | 30 | 100 | 100 | 100 | 100 | 100 | 100 | 100 | 100 | 40 | 30 | 70 | 60 | 100 | 100 | 60 | Pigweed plant response rating [8, 17]: 100; Plant response rating, Corn (corn (Zea mays); [15]): 30 |

From patent publication US10597388B2, “Pyridazinone herbicides” (FMC CORPORATION, priority 2014, dated 2020)
